The IC50 is the concentration needed to halve the response being measured.

Consider 42 molecules from ChEMBL document CHEMBL3091343, “Nicotinamide phosphoribosyltransferase inhibitors, design, preparation, and structure-activity relationship” (J Med Chem, 2013).

One experiment relates to MCF7. The experiment can be described thus: Cytotoxicity against human MCF-7 cells assessed as growth inhibition after 72 hrs by WST-1 assay. It counts as functional, cell-based. Conditions: MCF7, 72 h. Background: Formazan colour is commonly taken as a measure of viable cells.
The subject of the next experiment is A2780. Kind of experiment: Cytotoxicity against human A2780 cells assessed as growth inhibition after 72 hrs by WST-1 assay. Conditions: A2780, 72 h. Format: functional, cell-based.
The target of experiment [1] is Nicotinamide phosphoribosyltransferase (Homo sapiens, UniProt P43490). The experiment can be described thus: Inhibition of NAMPT in human HepG2 cells using [14C]-nicotinamide/PRPP as substrate assessed as formation of [14C]-nicotinamide mononucleotide after 1 hr by liquid scintillation counting analysis. It counts as cell-based.
Nicotinamide phosphoribosyltransferase, sequence (P43490 whole entry): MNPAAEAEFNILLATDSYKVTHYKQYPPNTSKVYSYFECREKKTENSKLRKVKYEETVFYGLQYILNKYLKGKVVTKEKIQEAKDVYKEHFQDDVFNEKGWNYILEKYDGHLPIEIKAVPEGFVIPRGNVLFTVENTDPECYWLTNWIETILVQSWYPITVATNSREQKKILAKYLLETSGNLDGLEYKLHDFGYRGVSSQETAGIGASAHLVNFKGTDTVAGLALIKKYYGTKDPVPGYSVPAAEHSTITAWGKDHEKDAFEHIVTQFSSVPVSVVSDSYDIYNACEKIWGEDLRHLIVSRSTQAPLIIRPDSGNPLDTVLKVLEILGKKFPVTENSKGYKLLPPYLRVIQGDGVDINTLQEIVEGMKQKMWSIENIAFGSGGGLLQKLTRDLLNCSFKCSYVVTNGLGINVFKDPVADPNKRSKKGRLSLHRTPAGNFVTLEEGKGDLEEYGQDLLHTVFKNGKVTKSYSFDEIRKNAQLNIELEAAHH

On to `O=C1C(=O)C(Nc2ccncc2)C1NCCCCCCS(=O)(=O)N(OCCN1CCOCC1)C1CCCC1` (configuration not stated), for which the half-maximal inhibitory concentration (IC50) in the experiment with MCF7 was determined as 13.7 nM; in the experiment on A2780, 0.59 nM.

With `N#C/N=C(\NCCCCCC(=O)N(Cc1ccccc1)OCCN1CCOCC1)Nc1ccncc1`, the values for the IC50 with MCF7 and with A2780 were 0.021 nM and 0.081 nM, respectively.

Consider `O=C(NCCCCCS(=O)(=O)N(OCCN1CCOCC1)C1CCCC1)NCc1cccnc1`, for which the half-maximal inhibitory concentration (IC50) with MCF7 was found to be 7 nM; in the experiment on A2780, 2.7 nM.

For the molecule `N#C/N=C(\NCCCCCCS(=O)(=O)N(OCCN1CCOCC1)C1CCCC1)Nc1ccncc1`, the IC50 in the experiment with A2780 amounted to 0.0041 nM.

Take `O=C1C(=O)C(Nc2ccncc2)C1NCCCCCC(=O)N(Cc1ccccc1)OCCN1CCOCC1` (configuration not stated): the IC50 in the experiment with MCF7 turned out to be 23 nM; in the experiment on A2780, 0.68 nM.

`O=C(NCCCCCCS(=O)(=O)N(OCCN1CCOCC1)C1CCCC1)NCc1cccnc1`: the values for the IC50 with MCF7 and in the experiment on A2780 were 5.8 nM and 0.58 nM, respectively.

As to `N#C/N=C(\NCCCCCCS(=O)(=O)N(OCCN1CCOCC1)C1CCC1)Nc1ccncc1`, the half-inhibitory concentration (IC50) with MCF7 amounted to 0.007 nM; in the experiment on A2780, 0.049 nM.

On to `O=C1C(=O)C(Nc2ccncc2)C1NCCCCCCC(=O)N(Cc1ccccc1)OCCN1CCOCC1` (configuration not stated), for which the IC50 with MCF7 came out at 12.3 nM; with A2780, 0.29 nM.

As for `N#C/N=C(\NCCCCCCS(=O)(=O)N(CCCN1CCOCC1)C1CCCCC1)Nc1ccncc1`, the values for the IC50 (in experiment [1]; in the experiment with MCF7; in the experiment on A2780) were 2.4 nM, 0.11 nM and 0.16 nM, respectively.

With `O=C(NCCCCCS(=O)(=O)N(OCCN1CCOCC1)C1CCCCC1)Nc1ccncc1`, the IC50 is 28 nM in the experiment on MCF7 and 3.4 nM with A2780.

With `N#C/N=C(\NCCCCCS(=O)(=O)N(OCCN1CCOCC1)C1CCCCC1)Nc1ccncc1`, the IC50 in the experiment with MCF7 is 0.036 nM; in the experiment on A2780, 0.011 nM.

With `N#C/N=C(\NCCCCCCC(=O)N(OCCN1CCOCC1)C1CCCCC1)Nc1ccncc1`, the figures for the half-maximal inhibitory concentration (IC50) (in experiment [1]; in the experiment with MCF7; with A2780) were 0.2 nM, 0.42 nM and 0.1 nM, respectively.

Turning to `N#C/N=C(\NCCCCCCC(=O)N(Cc1ccccc1)OC1CCCCC1)Nc1ccncc1`, the results for the 50% inhibitory concentration (IC50) (in experiment [1]; in the experiment on MCF7; in the experiment on A2780) were 38.5 nM, 1 nM and 0.055 nM, respectively.

In the case of `N#C/N=C(\NCCCCCCS(=O)(=O)N(CCCN1CCOCC1)C1CCC1)Nc1ccncc1`, the IC50 in the experiment on MCF7 is 0.1 nM; with A2780, 0.091 nM.

Turning to `N#C/N=C(\NCCCCCCS(=O)(=O)N(OCCN1CCOCC1)C1CCCCC1)Nc1cccnc1`, the 50% inhibitory concentration (IC50) is 2.9 nM in the experiment on MCF7 and 0.51 nM in the experiment on A2780.

In the case of `O=C(NCCCCCCCS(=O)(=O)N(OCCN1CCOCC1)C1CCCCC1)NCc1cccnc1`, the half-inhibitory concentration (IC50) in the experiment on MCF7 worked out at 3.6 nM; in the experiment with A2780, 0.31 nM.

With `C[C@@H](CCCCCN/C(=N\C#N)Nc1ccncc1)C(=O)NOC1CCCCC1`, the half-maximal inhibitory concentration (IC50) in the experiment on MCF7 amounted to 1 nM; in the experiment with A2780, 0.08 nM.

With `O=C1C(=O)C(Nc2ccncc2)C1NCCCCCS(=O)(=O)N(OCCN1CCOCC1)C1CCCC1` (configuration not stated), the IC50 is 46.3 nM in the experiment on MCF7 and 0.38 nM with A2780.

Turning to `O=C(NCCCCCCS(=O)(=O)N(CCN1CCOCC1)CC1CCCCC1)NCc1cccnc1`, the figures for the IC50 (in experiment [1]; with MCF7; in the experiment on A2780) were 11.8 nM, 0.93 nM and 0.17 nM, respectively.

In the case of `O=S(=O)(CCCCCCNC(=S)Nc1ccncc1)N(OCCN1CCOCC1)C1CCCC1`, the concentration for half-maximal inhibition (IC50) in the experiment on MCF7 was 0.31 nM; in the experiment with A2780 it was 0.16 nM.

On to `O=C(NCCCCCCS(=O)(=O)N(CCN1CCOCC1)CC1CCCCC1)Nc1ccncc1`, for which the results for the IC50 (in experiment [1]; in the experiment on MCF7; in the experiment with A2780) were 133 nM, 1.4 nM and 0.56 nM, respectively.

For `O=C(CCCCCCNC(=S)NCc1cccnc1)N(OCCN1CCOCC1)C1CCCCC1`, the half-inhibitory concentration (IC50) is 8.2 nM in experiment [1], 5.5 nM with MCF7 and 0.91 nM in the experiment with A2780.

For `O=C(NCCCCCS(=O)(=O)N(OCCN1CCOCC1)C1CCC1)NCc1cccnc1`, the 50% inhibitory concentration (IC50) in the experiment with MCF7 came to 49 nM; with A2780 it was 13 nM.

For `N#CNC(=Nc1ccncc1)NCCCCCCC(=O)NOC1CCCCC1`, the half-maximal inhibitory concentration (IC50) in experiment [1] was determined as 1.1 nM; in the experiment with MCF7, 940 nM; in the experiment with A2780 it was 35 nM.

Turning to `C[C@H](CCCCCN/C(=N\C#N)Nc1ccncc1)C(=O)NOC1CCCCC1`, the IC50 with MCF7 was determined as 38.3 nM; with A2780, 3.9 nM.

Consider `O=C(NCCCCCCS(=O)(=O)N(OCCN1CCOCC1)C1CCC1)NCc1cccnc1`, for which the figures for the IC50 in the experiment on MCF7 and with A2780 were 11 nM and 2.2 nM, respectively.

With `O=C(NCCCCCCCS(=O)(=O)N(OCCN1CCOCC1)C1CCCCC1)Nc1ccncc1`, the figures for the concentration for half-maximal inhibition (IC50) in the experiment on MCF7 and in the experiment on A2780 were 7.4 nM and 1.8 nM, respectively.

Take `O=C(NCCCCCCC(=O)N(OCCN1CCOCC1)C1CCCCC1)NCc1cccnc1`: the concentration for half-maximal inhibition (IC50) was 0.37 nM in the experiment with MCF7 and 0.27 nM with A2780.

Regarding `O=C(NCCCCCCS(=O)(=O)N(CCCN1CCOCC1)C1CCC1)NCc1cccnc1`, the IC50 was determined as 8.7 nM with MCF7 and 1.7 nM in the experiment on A2780.

Regarding `N#C/N=C(\NCCCCCCC(=O)N(OCCN1CCOCC1)C1CCCCC1)Nc1ccccc1`, the IC50 in the experiment with MCF7 came to 1020 nM; in the experiment on A2780, 98 nM.

With `O=C1C(=O)C(Nc2ccncc2)C1NCCCCCS(=O)(=O)N(OCCN1CCOCC1)C1CCCCC1` (configuration not stated), the values for the IC50 (in experiment [1]; in the experiment with MCF7; in the experiment on A2780) were 49.6 nM, 35.8 nM and 0.57 nM, respectively.

On to `N#C/N=C(\NCCCCCCS(=O)(=O)N(CCN1CCOCC1)OCc1ccccc1)Nc1ccncc1`, for which the concentration for half-maximal inhibition (IC50) turned out to be 0.63 nM in the experiment with MCF7 and 0.053 nM in the experiment with A2780.

Take `N#CN=C(NCCCCCCOc1ccc(Cl)cc1)Nc1ccncc1` [CHS-828]: the half-inhibitory concentration (IC50) with MCF7 turned out to be 1.6 nM; in the experiment with A2780, 0.56 nM.

On to `O=C(CCCCCCNc1c(Nc2ccncc2)c(=O)c1=O)N(OCCN1CCOCC1)C1CCCCC1`, for which the half-inhibitory concentration (IC50) with A2780 came out at 0.03 nM.

Consider `O=C1C(=O)C(Nc2ccncc2)C1NCCCCCCCS(=O)(=O)N(OCCN1CCOCC1)C1CCCCC1` (configuration not stated), for which the results for the half-maximal inhibitory concentration (IC50) (in experiment [1]; in the experiment with MCF7; with A2780) were 3.6 nM, 8 nM and 0.49 nM, respectively.

On to `N#C/N=C(\NCCCCCS(=O)(=O)N(OCCN1CCOCC1)C1CCCC1)Nc1ccncc1`, for which the concentration for half-maximal inhibition (IC50) was 0.041 nM in the experiment on MCF7 and 0.022 nM in the experiment with A2780.

Consider `O=C(NCCCCCS(=O)(=O)N(OCCN1CCOCC1)C1CCCCC1)NCc1cccnc1`, for which the IC50 with MCF7 turned out to be 6.5 nM; with A2780, 4.6 nM.

On to `N#C/N=C(\NCCCCCCCC(=O)N(Cc1ccccc1)OCCN1CCOCC1)Nc1ccncc1`, for which the half-maximal inhibitory concentration (IC50) came out at 4.4 nM in experiment [1] and 0.01 nM in the experiment on A2780.

For the molecule `O=C1C(=O)C(Nc2ccncc2)C1NCCCCCCS(=O)(=O)N(CCN1CCOCC1)OCC1CCCCC1` (configuration not stated), the IC50 in the experiment with MCF7 was determined as 10.8 nM; with A2780 it was 0.73 nM.

For the molecule `O=C1C(=O)C(Nc2ccncc2)C1NCCCCCCS(=O)(=O)N(OCCN1CCOCC1)C1CCC1` (configuration not stated), the half-maximal inhibitory concentration (IC50) with MCF7 came out at 29.1 nM; with A2780, 0.2 nM.

As to `N#CNC(=Nc1ccncc1)NCCCCCCS(=O)(=O)NOCC1CCCCC1`, the figures for the 50% inhibitory concentration (IC50) (in experiment [1]; in the experiment on MCF7; in the experiment with A2780) were 2.4 nM, 3.4 nM and 0.16 nM, respectively.

For the molecule `N#C/N=C(\NCCCCCCCS(=O)(=O)N(OCCN1CCOCC1)C1CCCCC1)Nc1ccncc1`, the half-maximal inhibitory concentration (IC50) in the experiment on MCF7 stood at 0.29 nM; in the experiment with A2780, 0.089 nM.
